# Assays:
# [1] = target: T1, human coagulation factor Xa (Homo sapiens, UniProt P00742); experiment: Chromogenic assay for F Xa inhibition; format: biochemical; conditions: chromogenic substrate S-2765 200 μM; Ki from IC50 by Cheng Prusoff formula, mean of duplicates
# T1 construct: purchased Haemochrom Diag; HFXa
# Experimental: (§1) The ability of the compounds of the formulae I or Ia to inhibit thrombin or factor Xa or other enzymes like factor VIIa, plasmin, or trypsin can be assessed by determining the concentration of the compound of the formulae I or Ia that inhibits enzyme activity by 50%, i.e. the 1050 value, which was related to the inhibition constant Ki. Purified enzymes were used in chromogenic assays. The concentration of inhibitor that causes a 50% decrease in the rate of substrate hydrolysis was determined by linear regression after plotting the relative rates of hydrolysis (compared to the uninhibited control) versus the log of the concentration of the compound of formulae I or Ia. For calculating the inhibition constant Ki, the 1050 value was corrected for competition with substrate using the formula Ki=IC50/{1+(substrate concentration/Km)} wherein Km is the Michaelis-Menten constant (Chen and Prusoff, Biochem. Pharmacol. 22 (1973) 3099-3108). Measurement of F Xa and Thrombin Inhibition:
# (§2) The claimed substances were tested for F Xa and thrombin inhibition with a chromogenic assay. 8 μl DMSO solution of the compound, 72 μL assay buffer (50 mM TRIS, 150 mM NaCl, 0.1% BSA, pH 7.8) and 20 μL enzyme (human coagulation factor Xa: Haemochrom Diag. Cat. Nr. HFXa, final concentration […]; human thrombin Behring: LOT.-No. 881001) were mixed and incubated for 15 minutes at room temperature in a 96 well microtiter plate. The enzyme reaction was started with 100 μL substrate (F Xa: S-2765, Chromogenix/Haemochrom Cat. Nr. 41249; thrombin: S-2366, Chromogenix/Haemochrom Cat. Nr. 41222 both in a final concentration of 200 μM). The time course of the reaction was monitored at 405 nm in a microtiter plate reader (SpectraMax plus 384; Molecular Devices Inc.) for 15 minutes.
# (§3) The Ki was calculated from the mean of duplicates from a dilution series of the compound by the reader according to the Cheng Prusoff formula Ki=IC50/(1+(S/Km).
# (§4) The results (inhibition constants Ki Thrombin and FXa in mikro M [μM]) for inhibition of thrombin and factor Xa are shown in Table 1.
# [2] = target: T2, human thrombin (Homo sapiens, UniProt P00734); experiment: Chromogenic assay for thrombin inhibition; format: biochemical; conditions: chromogenic substrate S-2366 200 μM; Ki from IC50 by Cheng Prusoff formula, mean of duplicates
# T2 construct: conversion of prothrombin to thrombin, the final enzyme in the coagulation cascade; purchased Behring LOT.-No. 881001 (a lot number; no catalogue number given)
# Experimental: as §1, §2, §3, §4
# T1 sequence (P00742 235-488 limits assumed): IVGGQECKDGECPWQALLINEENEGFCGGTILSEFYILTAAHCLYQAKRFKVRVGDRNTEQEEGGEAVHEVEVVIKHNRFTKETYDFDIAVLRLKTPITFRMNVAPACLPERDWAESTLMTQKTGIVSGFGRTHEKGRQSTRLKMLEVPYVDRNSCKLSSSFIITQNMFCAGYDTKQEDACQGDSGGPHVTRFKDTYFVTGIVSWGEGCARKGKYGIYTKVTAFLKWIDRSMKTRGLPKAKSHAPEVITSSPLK
# T1 sequence (P00742 41-179 limits assumed): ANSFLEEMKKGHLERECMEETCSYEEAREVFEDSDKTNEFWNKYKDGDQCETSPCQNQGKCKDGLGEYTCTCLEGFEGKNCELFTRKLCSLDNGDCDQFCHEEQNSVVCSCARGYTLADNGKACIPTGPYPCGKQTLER
SMILES,Ki [1] [nM],Ki [2] [nM]
"O=C([C@H](Cc1cc(-c2ccc(Cl)s2)on1)NS(=O)(=O)c1cccc(N2CCOCC2=O)c1Cl)N1CCCCCC1 [Example 2, N-{(S)-2-Azepan-1-yl-1-[5-(5-chloro-thiophen-2-yl)-isoxazol-3-ylmethyl]-2-oxo-ethyl}-2-chloro-3-(3-oxo-morpholin-4-yl)-benzenesulfonamide]",83,7
"Cc1c(N2CCCC2=O)cccc1S(=O)(=O)N[C@@H](Cc1cc(-c2ccc(Cl)s2)on1)C(=O)N1CCN(CC(F)(F)F)CC1 [Example 6, N-{(S)-1-[5-(5-Chloro-thiophen-2-yl)-isoxazol-3-ylmethyl]-2-oxo-2-[4-(2,2,2-trifluoro-ethyl)-piperazin-1-yl]-ethyl}-2-methyl-3-(2-oxo-pyrrolidin-1-yl)-benzenesulfonamide trifluoro acetate]",0.72,14
"CCc1c(N2CCOCC2=O)cccc1S(=O)(=O)N[C@@H](Cc1cc(-c2ccc(Cl)s2)on1)C(=O)N1CCCCCC1 [Example 1, N-{(S)-2-Azepan-1-yl-1-[5-(5-chloro-thiophen-2-yl)-isoxazol-3-ylmethyl]-2-oxo-ethyl}-2-ethyl-3-(3-oxo-morpholin-4-yl)-benzenesulfonamide]",13,0.35
"COc1c(N2CCCCC2=O)cc(F)cc1S(=O)(=O)N[C@@H](Cc1cc(-c2ccc(Cl)s2)on1)C(=O)NCC1CC1 [Example 3, (S)-3-[5-(5-Chloro-thiophen-2-yl)-isoxazol-3-yl]-N-cyclopropylmethyl-2-[5-fluoro-2-methoxy-3-(2-oxo-piperidin-1-yl)-benzenesulfonylamino]-propionamide]",904,268
"COc1c(N2CCCCC2=O)cc(F)cc1S(=O)(=O)N[C@@H](Cc1cc(-c2ccc(Cl)s2)on1)C(=O)N1CCN(C2CC2)CC1 [Example 4, N—[(S)-1-[5-(5-Chloro-thiophen-2-yl)-isoxazol-3-ylmethyl]-2-(4-cyclopropyl-piperazin-1-yl)-2-oxo-ethyl]-5-fluoro-2-methoxy-3-(2-oxo-piperidin-1-yl)-benzenesulfonamide trifluoro acetate]",6,29
"O=C([C@H](Cc1cc(-c2ccc(Cl)s2)on1)NS(=O)(=O)c1cccc(N2CCCCC2=O)c1OC(F)F)N1CCN(C2CC2)CC1 [Example 5, N—[(S)-1-[5-(5-Chloro-thiophen-2-yl)-isoxazol-3-ylmethyl]-2-(4-cyclopropyl-piperazin-1-yl)-2-oxo-ethyl]-2-difluoromethoxy-3-(2-oxo-piperidin-1-yl)-benzenesulfonamide trifluoro acetate]",33,94
"Cc1c(N2CCCC2=O)cccc1S(=O)(=O)N[C@@H](Cc1cc(-c2ccc(Cl)s2)on1)C(=O)N1CCNC(C(F)(F)F)C1 (stereo partly drawn) [Example 7, N—[(S)-1-[5-(5-Chloro-thiophen-2-yl)-isoxazol-3-ylmethyl]-2-oxo-2-(3-trifluoromethyl-piperazin-1-yl)-ethyl]-2-methyl-3-(2-oxo-pyrrolidin-1-yl)-benzenesulfonamide trifluoro acetate]",0.44,0.79

# — US8835653B2, “Chlorothiophene-isoxazoles as inhibitors of coagulation factors Xa and thrombin” (Sanofi, priority 2008, dated 2014)
